# Measured values from patent publication US20130338216A1, “DEUTERATED AND/OR FLUORINATED TAXANE DERIVATIVES” (NEKTAR THERAPEUTICS, priority 2010, published 2013).
# Columns and labels:
# boiled liver microsomes = assay: Stability in boiled liver microsomes (control incubation); assay type: in vitro ADME
# Experimental: (§1) Methods: Previously frozen human liver microsomes (mixed gender pool; Xenotech H0630) were thawed in a 37° C. water bath and put on ice immediately after thawing. […] The incubation mixture (500 μL) was prepared in individual silanized tube (CTS-13100) for each time point and for each test article. Incubation was terminated by adding 500 μL cold water:acetonitrile 1:1 (v/v) spiked with 400 nM paclitaxel (internal standard) to the tube. […] The slope of the linear regression from log percentage remaining versus incubation time relationships (−k) was used in the calculation of intrinsic clearance: Intrinsic clearance (CLint)=k*(μL incubation/mg of microsomal protein).
# [1] = In vitro metabolic stability in human liver microsomes; assay type: in vitro ADME; settings: both sexes, pH 7.4; human liver microsomes 0.5 mg/mL, 1 μM test article, up to 30 minutes, 37° C.; read-out: intrinsic clearance rate
# Experimental: as §1
# [2] = system: cytochrome P450 CYP3A4 and CYP3A5; settings: by cytochrome P450 CYP3A4 and CYP3A5 isoenzymes; cited from earlier work
# NCI-H460 cell line = assay: In vitro cytotoxicity, CellTiter-Glo cell viability, NCI-H460; assay type: cell-based; settings: Homo sapiens, 72 hours of exposure
# Experimental: (§2) Experimental Procedure: NCI-H460, A549, and MDA-MB-231 cell lines were obtained from ATCC and cultured in RPMI-1640 medium supplemented with 2 mM L-glutamine dipeptide and 10% fetal bovine serum (FBS). For assays, cells were seeded in 96-well plates at 5,000 cells per well in RMPI-1640 medium supplemented with 2 mM L-glutamine dipeptide and 10% FBS. All cells were seeded in a total volume of 50 μL, and placed in a 37° C. humidified 5% CO2 cell culture incubator overnight. […] Cell viability was assessed using the CellTiter-Glo Luminescent Cell Viability Assay (Promega) according to the manufacturer's directions. Briefly, plates were removed from the incubator and placed on the bench at room temperature for 30 minutes. Plates were not stacked. Following the 30 minute incubation period at room temperature, 100 μL of CellTiter-Glo reagent were added to each well on the plate and mixed for two minutes, followed by a further ten minutes incubation at room temperature. Luminescence was then recorded using a PerkinElmer Microbeta scintillation and luminescence counter (TriLux). At the same time as drug exposure, a CellTiter-Glo assay was carried out on one plate of each cell line to obtain 0 hr counts for the assay. Following a 72 hour exposure to drugs, a CellTiter-Glo assay was performed on all remaining plates.
# A549 cell line = assay: In vitro cytotoxicity, CellTiter-Glo cell viability, A549; assay type: cell-based; settings: Homo sapiens, 72 hours of exposure
# Experimental: as §2
# MDA-MB-231 cell line = assay: In vitro cytotoxicity, CellTiter-Glo cell viability, MDA-MB-231; assay type: cell-based; settings: Homo sapiens, 72 hours of exposure
# Experimental: as §2
# [3] = Maximum tolerated dose (MTD) study in athymic mice; settings: for MTD at 30 day: female, athymic nu/nu, mouse, in vivo, iv, athymic nu/nu mice
# Experimental: Mice were observed daily for clinical signs and body weights were recorded on days 1-5, 7, 9, 11, 13, and then biweekly until the end of study. All procedures were conducted in compliance with IACUC requirements. Compound dosing was terminated for any group in which mean weight loss exceeded 20% or >10% of animals died. Moribund animals were euthanized and all animals were euthanized at end of study (day 30).
compound,measurement,setting,value
CO[C@H]1C(=O)[C@]2(C)[C@@H](OC)C[C@H]3OC[C@@]3(OC(C)=O)[C@H]2[C@H](OC(=O)c2ccccc2)[C@]2(O)C[C@H](OC(=O)[C@H](O)[C@@H](NC(=O)OC(C)(C)C)c3ccccc3)C(C)=C1C2(C)C [Cabazitaxel],docetaxel formation after incubation with boiled liver microsomes,boiled liver microsomes,not observed
same,stability during incubation with boiled liver microsomes,"boiled liver microsomes; 1 μM, up to 30 minutes",fairly stable
same,microsomal CLint at 1 μM,[1],410 µL/min/mg
same,extensively metabolized in the liver,[2],> 95%
"CC(=O)O[C@@]12CO[C@@H]1C[C@H](O)[C@@]1(C)C(=O)[C@H](O)C3=C(C)[C@@H](OC(=O)[C@H](O)[C@@H](NC(=O)OC(C)(C)C)c4ccccc4)C[C@@](O)([C@@H](OC(=O)c4ccccc4)[C@H]21)C3(C)C [Docetaxel, reference compound]",IC50,NCI-H460 cell line,3.52 nM
same,IC50,A549 cell line,1.82 nM
same,IC50,MDA-MB-231 cell line,35.2 nM
[2H]C([2H])([2H])C(OC(=O)N[C@@H](c1ccccc1)[C@@H](O)C(=O)O[C@H]1C[C@@]2(O)[C@@H](OC(=O)c3ccccc3)C3C(C)(C(=O)[C@H](O)C(=C1C)C2(C)C)[C@@H](O)CC1OC[C@]13OC(C)=O)(C([2H])([2H])[2H])C([2H])([2H])[2H] (stereo partly drawn) [d9-Docetaxel],IC50,NCI-H460 cell line,2.68 nM
same,IC50,A549 cell line,1.6 nM
same,Treatment-Related Deaths,"[3]; Group 1, 10 mg/kg iv, qwk x 3, N 5",0
same,BW Nadir,"[3]; Group 2, 20 mg/kg iv, qwk x 3",−5.6%
same,Treatment-Related Deaths,"[3]; Group 2, 20 mg/kg iv, qwk x 3, N 5",0
same,BW Nadir,"[3]; Group 3, 40 mg/kg iv, qwk x 3",−21.9%
same,Treatment-Related Deaths,"[3]; Group 3, 40 mg/kg iv, qwk x 3, N 5",0
same,BW Nadir,"[3]; Group 4, 7.5 mg/kg iv, qwk x 3",−10.6%
same,Treatment-Related Deaths,"[3]; Group 4, 7.5 mg/kg iv, qwk x 3 in Table 2, N 5",0
same,BW Nadir,"[3]; Group 5, 15 mg/kg iv, qwk x 3",−12.3%
same,Treatment-Related Deaths,"[3]; Group 5, 15 mg/kg iv, qwk x 3 in Table 2, N 5",0
same,BW Nadir,"[3]; Group 6, 30 mg/kg iv, qwk x 3",−29.6%
same,Mean Day of Death,"[3]; Group 6, 30 mg/kg iv, qwk x 3",11.5
same,Treatment-Related Deaths,"[3]; Group 6, 30 mg/kg iv, qwk x 3 in Table 2, N 5",2
same,MTD at 30 day,"[3]; q3d×3, iv",~15 mg/kg
same,MTD at 30 day,"[3]; qwk×3, iv",~30 mg/kg
same,IC50,MDA-MB-231 cell line,25.2 nM
